Measurements from PMC3769975 (ChemMedChem, 2012).
Converted amounts (≈) assume the structure as drawn. Like-named read-outs stand apart in the source and are kept apart here.

Tests used:
[1] = system: WSN-Ren luciferase virus (influenza A/WSN/33) in MDCK-HA cells; assay: microbe, parasite or virus in culture; format: cell-based, influenza A/WSN/33 (H1N1)
panel of 13 kinases = assay: Kinase panel inhibition; format: biochemical; settings: concentrations up to 5 μM
[2] = system: wild type influenza A/WSN/33 virus in A549 cells; assay: qRT-PCR of viral NP mRNA, A549 cells infected with wild type WSN virus; format: cell-based, influenza A/WSN/33 (H1N1); settings: 10 μM, 1 μM and 0.1 μM
[3] = 1D proton NMR solubility experiment; format: physicochemical; settings: PBS with 2% DMSO, aqueous buffer, kinetic from dmso stock
[4] = system: WSN-Ren luciferase virus in MDCK-HA cells; format: cell-based, influenza A/WSN/33 (H1N1)
[5] = target: recombinant neuraminidase N1 (A/California/04/09) (Influenza A virus (A/California/04/2009(H1N1)), UniProt C3W5S3); assay: Fluorescent neuraminidase assay; format: biochemical, influenza A/California/04/09; settings: serial dilutions from 100 μM to 6.4 nM

Row | Structure (SMILES) | anti-influenza activity (in words, SAR discussion) [1] | EC50 ([1]; Influenza A virus, WSN) [µM] | further results
1 | CCC(C)(C)n1nnnc1C(C(C)C)N(Cc1cc2cc(C)c(C)cc2[nH]c1=O)CC1CCCO1 (stereo not shown) [Compound 25, 6,7-dimethyl-3-(((2-methyl-1-(1-(tert-pentyl)-1H-tetrazol-5-yl)propyl)((tetrahydrofuran-2-yl)methyl)amino)methyl)quinolin-2(1H)-one] | low micromolar range | ~3 | EC50 [1]: 2.95 µM
2 | CCC(C)(C)n1nnnc1C(NCc1cc2cc(C)c(C)cc2[nH]c1=O)C(C)C (stereo not shown) [Compound 23, 6,7-dimethyl-3-(((2-methyl-1-(1-(tert-pentyl)-1H-tetrazole-5-yl)propyl)amino)methyl)quinolin-2(1H)-one] | inactivation | > 100 | –
3 | Cc1cc2cc(CNCCO)c(=O)[nH]c2cc1C [Compound 6, 3-((2-hydroxyethylamino)methyl)-6,7-dimethylquinolin-2(1H)-one] | did not elicit any anti-influenza activity | > 100 | –
4 | CCOC(=O)C1=C[C@@H](OC(CC)CC)[C@H](NC(C)=O)[C@@H](N)C1 [oseltamivir phosphate, reference compound] | – | ~0.0005 | potency relative to best compounds of Table 1 [1]: roughly 100 fold
5 | CCC(C)(C)n1nnnc1C(C(C)C)N(CCO)Cc1cc2cc(C)c(C)cc2[nH]c1=O (stereo not shown) [Compound 7, 3-(((2-hydroxyethyl)(2-methyl-1-(1-tert-pentyl-1H-tetrazole-5-yl)propyl)amino)methyl)-6,7-dimethylquinolin-2(1H)-one] | – | 0.0456 | inhibition of selected kinases (panel of 13 kinases): did not significantly inhibit; viral NP mRNA expression levels [2]: reduced NP mRNA expression levels in a dose dependent matter; solubility [3]: 10 to 15 µM (≈ 4.41 to 6.61 µg/mL); viral NP mRNA expression compared to DMSO treated controls [4]: reduction of the NP mRNA expression; viral replication (NP mRNA) after 26 hour incubation ([4]; 10 μM): minimal viral replication; activity against neuraminidase [5]: ineffective; cytotoxicity profile (MDCK-HA cell line): good cytotoxicity profile
6 | Cc1cc2cc(CNC(=O)c3ccccc3)c(=O)[nH]c2cc1C [Compound 24, N-((6,7-dimethyl-2-oxo-1,2-dihydroquinolin-3-yl)methyl)benzamide] | not sufficient | > 100 | –
